Test results from PubChem BioAssay (NCI).
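48-hour exposure; five concentrations; linearly interpolated endpoints. GI50: concentration for 50% inhibition of growth. TGI denotes the concentration required for complete inhibition of growth.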

Tests used:
Assay in all cases: DTP human tumour cell line panel, 48 h
786-0 renal = test system: 786-0 renal
CAKI-1 renal = test system: CAKI-1 renal
CCRF-CEM leukemia = test system: CCRF-CEM leukemia
EKVX NSCLC = test system: EKVX NSCLC
HCC-2998 colon = test system: HCC-2998 colon
LOX IMVI melanoma = test system: LOX IMVI melanoma
MCF7 breast = test system: MCF7 breast
MDA-MB-435 = test system: MDA-MB-435
SN12C renal = test system: SN12C renal
T-47D breast = test system: T-47D breast
TK-10 renal = test system: TK-10 renal

Row | Compound | TGI (786-0 renal) [µM] | TGI (CAKI-1 renal) [µM] | TGI (CCRF-CEM leukemia) [µM] | TGI (EKVX NSCLC) [µM] | TGI (HCC-2998 colon) [µM] | TGI (LOX IMVI melanoma) [µM] | TGI (MCF7 breast) [µM] | TGI (MDA-MB-435) [µM] | TGI (SN12C renal) [µM] | TGI (T-47D breast) [µM] | TGI (TK-10 renal) [µM] | GI50 (MCF7 breast) [µM]
1 | CCOC(=O)c1nc2ccccc2nc1NCc1cc(OC)c(OC)c(OC)c1 | > 100 | > 100 | > 100 | > 100 | > 100 | > 100 | > 100 | 71.8 | > 100 | > 100 | > 100 | 
2 | CC(C)(C)c1cc(C2=NNC(c3ccccc3)C2)cc(C(C)(C)C)c1O (configuration not stated) | 29.6 | 28.2 |  | 36.6 |  | 29.6 | 27.7 | 26.8 | 32.7 | 26.8 | 29.4 | 
3 | CC[C@@H]1CC[C@@H]2[C@H](CC[C@]3(C)[C@@H](OS(=O)(=O)c4ccc(C)cc4)CC[C@@H]23)[C@H]1COS(=O)(=O)c1ccc(C)cc1 | > 100 |  | > 100 | > 100 | > 100 | > 100 | > 100 | > 100 | > 100 |  | > 100 | 
4 | Cc1cn(C2CC(O)C(COC(=O)NCCC(F)(F)C(F)(F)C(F)(F)C(F)(F)F)O2)c(=O)[nH]c1=O (configuration not stated) | > 100 | > 100 | > 100 | > 100 | > 100 |  | > 100 | > 100 | > 100 | > 100 | > 100 | 
5 | CCOC(=O)Cn1c(=O)c2nc(SC)sc2n(CC)c1=S | 0.32 |  | > 100 |  | > 100 | > 100 | > 100 | 3.2 | > 100 | > 100 | > 100 | 
6 | CCOP(=O)(OCC)C(C)(CC)N/C(=N/C(NC(C)=O)(C(F)(F)F)C(F)(F)F)NC1=NC(C(F)(F)F)(C(F)(F)F)N=C(C(F)(F)F)O1 (configuration not stated) | > 100 | > 100 | > 100 | > 100 | > 100 | > 100 | 68.8 | > 100 | > 100 | > 100 | > 100 | 
7 | Nc1cccc(/C=C/C(=O)N2CCN(CCOC(c3ccccc3)c3ccccc3)CC2)c1 | 30.3 | 34.8 | 26.4 | 36.2 |  | 32.2 | 31.5 | 29.8 | 33.9 | 33.1 | 28.3 | 
8 | COC(=O)C1CN=CN1CCc1ccccc1 (configuration not stated) | > 100 | > 100 | > 100 | > 100 | > 100 | > 100 | > 100 | > 100 |  | > 100 | > 100 | 
9 | CCOC(=O)c1cn2c(n1)sc1c(Cl)c(Cl)ccc12 | 31.2 | 65.3 | > 100 | > 100 | 98 | > 100 | > 100 | 12.6 | 39 | > 90.5 | > 79.4 | 
10 | COc1ccc(CC(=O)N2CCC3(C)CC(=O)CC=C23)cc1OC (configuration not stated) | > 100 | > 100 |  | > 100 |  | > 100 | > 100 | > 100 | > 100 | > 100 |  | 
11 | Cc1cccc(CP(Cc2cccc(C)c2)CC2(Cp3c4ccccc4c4ccccc43)COC2)c1 | > 31.6 | > 76.5 | > 100 | > 100 | > 100 | > 100 | > 100 | > 100 | > 31.6 | > 100 | > 71.8 | 
12 | O=C(NCCNCCCNC(=O)c1cc(-c2ccccc2)nc2ccccc12)c1cccc(O)c1O | > 100 | > 100 | > 100 | > 100 | 17.4 | > 100 | 15.9 | 13.1 | 52.6 | 10.8 | 64.4 | 
13 | O=C1NCc2ccccc2S(=O)(=O)n2cccc21 | > 100 | > 100 | > 100 | > 100 | > 100 | > 100 | > 100 | > 100 | > 100 | > 100 | > 100 | 
14 | N#Cc1c(-c2ccc([N+](=O)[O-])cc2)c(C#N)c(=O)n(NS(=O)(=O)c2ccccc2)c1-c1ccccc1 | > 100 | > 100 | > 100 | > 100 | > 100 | > 100 | > 100 | > 100 | > 100 |  | > 100 | 
15 | O=C1CSC(c2ccc([N+](=O)[O-])cc2)N1c1ccc(-n2c(-c3ccccc3)nc3ccccc3c2=O)cc1 (configuration not stated) | > 100 | > 100 | > 100 | > 100 | > 100 | > 100 | > 100 | > 100 | > 100 | > 100 | > 100 | 
16 | COc1cccc([C@H]2C/C(=N\NC(=O)C(=O)N[C@@H](C)c3ccccc3)c3ccccc3N2)c1 | 97.3 | 54.1 | 3.09 | > 100 | 0.0495 | > 100 | > 100 |  | 0.0898 |  | > 100 | 0.0306
17 | Cc1cccc(N(C(=O)Nc2ccc(Cl)c(Cl)c2)C2=NCC(C)S2)c1 (configuration not stated) | > 100 | > 100 | > 100 | > 100 | > 100 | 86.5 | 58.8 |  | > 100 | > 100 | 80.3 | 
18 | COc1ccc(C(=O)c2sc(Nc3ccc(Cl)cc3)nc2N)cc1 | 28.6 | 42.2 | 58.1 | > 100 | 44.7 | > 100 | > 100 | 7.35 | > 62.8 | > 100 | 33.4 | 
19 | Cc1ccc(N(C(=O)Nc2ccccc2)C2=NCC(C)S2)cc1C (configuration not stated) | 46.6 | > 10 | 50.6 | 72.1 | > 10 | 30.3 | 71.9 |  | 32 | > 100 | 55.2 | 
20 | CC(=O)OCC1OC(OC2CC3C(C)(C)C(OC(C)=O)CC[C@]3(C)C3CCC45CC4(CCC5[C@@H](C)C[C@H](O)C(O)C(C)(C)O)[C@]23C)C(O)C(O)C1O (some centres not stated) | > 10 | > 10 | > 10 | > 10 | > 10 | > 10 | > 10 | > 10 | > 10 | > 10 | > 10 | 
21 | CN1CCN(c2ncc3c(n2)sc2c(=O)n(-c4ccccc4)cnc23)CC1 | > 100 | > 100 | > 100 |  | > 100 | > 100 |  | > 100 | > 100 | > 100 | > 100 | 

Row | Compound | TGI (786-0 renal) [µM] | TGI (CAKI-1 renal) [µM] | TGI (CCRF-CEM leukemia) [µM] | TGI (EKVX NSCLC) [µM] | TGI (HCC-2998 colon) [µM] | TGI (LOX IMVI melanoma) [µM] | TGI (MCF7 breast) [µM] | TGI (MDA-MB-435) [µM] | TGI (SN12C renal) [µM] | TGI (T-47D breast) [µM] | TGI (TK-10 renal) [µM] | GI50 (MCF7 breast) [µM]
22 | CCOC(=O)c1c(N)sc2c1C(C)(C(=O)OCC)CC2 (configuration not stated) | > 100 |  |  | > 100 | > 100 |  | > 100 |  | > 100 |  | > 100 | 
23 | C=CCOC(=O)NC1C(OC(C)[C@@H](NC(=O)OCc2ccccc2)C(=O)OC(C)(C)C)OC(COC(C)=O)C(OC(C)=O)C1OC(C)=O (some centres not stated) | > 100 | > 100 | > 100 | > 100 | > 100 | > 100 | > 100 | > 100 | > 100 |  | > 100 | 
24 | CN(C)CCCNc1ccc([N+](=O)[O-])c2nc3ccccc3c(N)c12 | 1.8 | > 10 | 2.99 | 2.35 |  | 1.63 | > 10 | 2.26 | 7.37 |  | > 10 | 
25 | Cc1ccc(NC2=CC(=O)C(NO)c3ccccc32)cc1 (configuration not stated) | 17.4 | 6.73 |  | 8.57 | 25.8 | 11.7 | 10.8 |  | 10.5 | 7.63 | 62.7 | 
26 | CC[C@]1(Cc2ccc(OC)c(OC)c2)C=[N+]([O-])O[C@H](OC2CCCC2(c2ccccc2)c2ccccc2)[C@@H]1OC(C)=O (some centres not stated) | 3.67 |  | > 100 | 25.3 | 7.71 | 6.47 | 8 | 7 | > 39.3 | 12.4 | 10.8 | 
27 | O=C1NC(=S)N/C1=C\c1ccc(Br)s1 | > 100 | > 100 | > 100 | > 100 | > 100 | > 100 | > 100 | > 100 | > 100 |  | > 100 | 
28 | CC1=NN(c2nc(N)nc(CSc3nc4n(c(=S)n3)CCN4)n2)C(C)(C)C1 | > 100 | 61.2 | > 100 | > 100 | > 100 | > 100 | > 100 | > 100 |  | 54.1 | > 100 | 
29 | CC(=O)OCC1OC(c2nc3ccccc3s2)=CC(OC(C)=O)C1OC(C)=O (configuration not stated) | > 100 | > 100 | > 100 | > 100 |  | > 100 | > 100 | > 100 | > 100 |  | > 100 | 
30 | O=C(c1ccc(Cl)cc1)N(C(=O)N1CCC(c2ccccc2)CC1)c1ccccc1 | > 100 | > 100 | 77.4 | 69 |  | > 100 | > 100 | > 100 | > 100 | 49.3 | > 100 | 
31 | Cc1cc(N(CCC#N)CCC#N)ccc1/C(N=Nc1ccc(C(=O)O)cc1)=N\NC(=O)c1cc(Cl)ccc1O | 39.8 | > 100 | > 100 | > 100 | > 100 |  | > 100 | > 100 | > 100 | > 100 | > 100 | 
32 | S=C1N(/N=C/c2c3ccccc3cc3ccccc23)C(=Nc2ccccc2)C(=Nc2ccccc2)N1c1ccccc1 | > 100 | > 100 |  | > 100 | > 100 |  | > 100 | > 100 | > 100 | > 100 | > 100 | 
33 | CC(=O)Oc1ccc(-c2cc3ccccc3oc2=O)cc1 | > 100 |  | > 100 | > 100 | > 100 | > 100 | > 100 | > 100 | > 100 | > 100 | > 100 | 
34 | CCSc1n/c(=C\c2ccco2)c2nncn12 | > 100 |  | > 100 | > 100 |  | > 100 | > 100 | > 100 | > 100 |  | > 100 | 
35 | CN1CNc2nc(N)n(C)c(=O)c2C1 | > 10 |  | > 10 | > 10 | > 10 |  |  | > 10 | > 10 |  | > 10 | 
36 | O=S(Nc1ccccc1)c1cccc(Cl)c1 (configuration not stated) | > 100 | > 100 | > 100 | > 100 | 76.3 | > 100 | > 100 | > 100 | > 100 |  | > 100 | 
37 | C=CCc1cccc2cc(C(=O)Nc3ccccc3)c(=N)oc12 | > 100 | > 100 | > 100 |  | 18.4 | > 100 | > 100 | > 100 | > 100 | 85.7 |  | 
38 | CCOP(=O)(OCC)C(Nc1ccc(Br)cc1)c1cccc([N+](=O)[O-])c1 (configuration not stated) | 44.8 | 49.7 | 49.1 | 10.8 | 32.4 | 23.3 |  | 36.7 | 37.8 | 37.1 | 88.1 | 
39 | Cn1c(O)c(C=Nc2ccccc2[N+](=O)[O-])c(=O)n(C)c1=O | > 100 | > 100 | > 100 | > 100 | > 100 | > 100 |  | > 100 | > 100 | > 100 | > 100 | 
40 | CCCCCCCCCCCCCCCCOCC(CC(F)(F)P(=O)(OCC)OCC)OC(C)=O (configuration not stated) | 23 | 30.3 |  | 44.9 | 22.6 |  | 33.5 | 33.9 | 44.5 |  | 27.3 | 
41 | CC(=O)O[C@H]1C(=O)[C@@]2(C)[C@H]([C@H](OC(=O)c3ccccc3)[C@]3(O)C[C@H](OC(=O)[C@H](O)[C@@H](NC(=O)c4cccc(N=[N+]=[N-])c4)c4ccccc4)C(C)=C1C3(C)C)[C@]1(OC(C)=O)CO[C@@H]1C[C@@H]2O | > 25 | > 25 | 0.0681 | > 25 |  | > 25 | > 25 | 0.00412 | > 25 | > 25 | > 20.1 | 
